{"source": "patent US4160829A", "about": "“Antibacterial 1,2,4-oxadiazolylacetamido cephalosporins” (Gist-Brocades N.V., priority 1972, dated 1979)", "key": {"[1]": {"tested_on": "Staph.aureus A 321", "experiment": "agar serial dilution test", "type": "cell-based, Staphylococcus aureus", "conditions": "agar serial dilution, 24 hours, 37° C."}, "[2]": {"tested_on": "Esch.coli U 20", "experiment": "agar serial dilution test", "type": "cell-based, Escherichia coli", "conditions": "agar serial dilution, 24 hours, 37° C."}, "[3]": {"tested_on": "Prot.mirab. A 1200", "experiment": "agar serial dilution test", "type": "cell-based, Proteus mirabilis", "conditions": "agar serial dilution, 24 hours, 37° C."}, "[4]": {"tested_on": "Kleb.pneum. A 809", "experiment": "agar serial dilution test", "type": "cell-based, Klebsiella pneumoniae", "conditions": "agar serial dilution, 24 hours, 37° C."}, "[5]": {"tested_on": "Salm.typh. R 127", "experiment": "agar serial dilution test", "type": "cell-based", "conditions": "37° C."}, "[6]": {"tested_on": "Staph.aureus A 355", "experiment": "agar serial dilution test", "conditions": "penicillinase-producing strain"}, "[7]": {"tested_on": "Prot.rettg. A 821", "experiment": "agar serial dilution test", "type": "cell-based, Proteus rettgeri", "conditions": "agar serial dilution, 24 hours, 37° C."}, "[8]": {"tested_on": "Prot.mirab. L 93", "experiment": "agar serial dilution test", "type": "cell-based, Proteus mirabilis", "conditions": "agar serial dilution, 24 hours, 37° C."}, "[9]": {"tested_on": "Pseud.aerug. 2396", "experiment": "agar serial dilution test", "type": "cell-based", "conditions": "agar serial dilution, 24 hours, 37° C."}, "[10]": {"tested_on": "Pseud.aerug. Wyeth A 1058", "experiment": "agar serial dilution test", "type": "cell-based", "conditions": "agar serial dilution, 24 hours, 37° C."}, "[11]": {"tested_on": "Bac.Subt.ATCC 6633", "experiment": "agar serial dilution test", "type": "cell-based, Bacillus subtilis", "conditions": "agar serial dilution, 24 hours, 37° C."}, "[12]": {"tested_on": "Shig.equir. T 3", "experiment": "agar serial dilution test", "type": "cell-based", "conditions": "37° C."}, "[13]": {"tested_on": "Prot.mirab. H 3", "experiment": "agar serial dilution test", "type": "cell-based, Proteus mirabilis", "conditions": "agar serial dilution, 24 hours, 37° C."}, "[14]": {"tested_on": "Staph.aureus A 2000", "experiment": "agar serial dilution test", "type": "cell-based, Staphylococcus aureus", "conditions": "agar serial dilution, 24 hours, 37° C."}, "[15]": {"tested_on": "Dipl.pneum. L 54", "experiment": "agar serial dilution test", "type": "cell-based, Diplococcus pneumoniae", "conditions": "agar serial dilution, 24 hours, 37° C."}, "[16]": {"tested_on": "Prot.morg. 2241", "experiment": "agar serial dilution test", "type": "cell-based", "conditions": "agar serial dilution, 24 hours, 37° C."}, "[17]": {"tested_on": "Salm.dubl. P 43", "experiment": "agar serial dilution test", "type": "cell-based, Salmonella dublin", "conditions": "agar serial dilution, 24 hours, 37° C."}, "[18]": {"tested_on": "Staph.aureus A 355", "experiment": "micro serial dilution test", "type": "cell-based, Staphylococcus aureus", "conditions": "micro serial dilution (in brackets), about 18 hours, 30° C. or 37° C., penicillinase-producing strain", "excerpt": "Two drops of a stock solution of the test compound (antibiotic) in a known concentration were brought into the first hole of a test plate with 9 numbered holes with a sterile Pasteur pipette. After rinsing this pipette three times with a physiological NaCl-solution, two drops of a stock solution of the test organism in a culture medium were brought in all the holes except for hole 8. In the first hole, the solution of the tested compound had been half diluted, then by stirring the liquid in the first hole and adding two drops of this mixture to the second hole and so on until hole 8, dilutions of the test compound solution were obtained in geometrical progression. The hole 9 contained no antibiotic and served for checking the growth of the testogranism in a blank medium. The test plate was incubated at 30° C. or 37° C. for about 18 hours.\n^1 Penicillinase-producing strain"}, "[19]": {"tested_on": "Pseud.aerug. H 10", "experiment": "agar serial dilution test", "type": "cell-based", "conditions": "agar serial dilution, 24 hours, 37° C."}, "[20]": {"tested_on": "Staph.aureus A 2000", "experiment": "micro serial dilution test", "type": "cell-based, Staphylococcus aureus", "conditions": "micro serial dilution (in brackets), about 18 hours, 30° C. or 37° C."}, "[21]": {"tested_on": "Haem.infl. A 1030", "experiment": "micro serial dilution test", "type": "cell-based", "conditions": "micro serial dilution (in brackets), about 18 hours, 30° C. or 37° C."}, "[22]": {"tested_on": "Past.multo. A 723", "experiment": "agar serial dilution test", "type": "cell-based, Pasteurella multocida", "conditions": "agar serial dilution, 24 hours, 37° C."}, "[23]": {"tested_on": "Strep. faec. L 80", "experiment": "agar serial dilution test", "type": "cell-based, Streptococcus faecalis", "conditions": "agar serial dilution, 24 hours, 37° C."}, "[24]": {"tested_on": "Staph.aureus A 2001", "experiment": "micro serial dilution test", "type": "cell-based, Staphylococcus aureus", "conditions": "micro serial dilution (in brackets), about 18 hours, 30° C. or 37° C."}, "[25]": {"tested_on": "Staph.aureus A 2001", "experiment": "agar serial dilution test", "type": "cell-based, Staphylococcus aureus", "conditions": "agar serial dilution, 24 hours, 37° C."}, "[26]": {"tested_on": "Strep.haem. A 266", "experiment": "agar serial dilution test", "type": "cell-based, Streptococcus haemolyticus", "conditions": "Streptococcus; agar serial dilution, 24 hours, 37° C.; read-out: minimal inhibitory concentration (MIC)"}, "[27]": {"conditions": "24 h, read-out: minimal inhibitory concentration (MIC)"}, "[28]": {"conditions": "Proteus mirabilis, read-out: minimal inhibitory concentration (MIC)"}, "[29]": {"conditions": "read-out: minimal inhibitory concentration (MIC)"}}, "data": [{"molecule": "7-[α-morpholino(3-methyl-1,2,4-oxadiazol-5-yl)-acetamido]-3-acetoxymethyl-3-cephem-4-carboxylic acid [Compound E]", "values": [{"measurement": "minimal inhibitory concentration (MIC)", "setting": "[1]", "value": 6, "unit": "µg/mL"}, {"measurement": "minimal inhibitory concentration (MIC)", "setting": "[2]", "value": "> 100", "unit": "µg/mL"}, {"measurement": "minimal inhibitory concentration (MIC)", "setting": "[3]", "value": "> 100", "unit": "µg/mL"}, {"measurement": "minimal inhibitory concentration (MIC)", "setting": "[4]", "value": 25, "unit": "µg/mL"}, {"measurement": "minimal inhibitory concentration (MIC)", "setting": "[5]; 24 hours", "value": "> 100", "unit": "µg/mL"}, {"measurement": "minimal inhibitory concentration (MIC)", "setting": "[6]; agar serial dilution, 24 hours, 37° C.", "value": 12.5, "unit": "µg/mL"}, {"measurement": "minimal inhibitory concentration (MIC)", "setting": "[7]", "value": 3, "unit": "µg/mL"}, {"measurement": "minimal inhibitory concentration (MIC)", "setting": "[8]", "value": 100, "unit": "µg/mL"}, {"measurement": "minimal inhibitory concentration (MIC)", "setting": "[9]", "value": "> 100", "unit": "µg/mL"}, {"measurement": "minimal inhibitory concentration (MIC)", "setting": "[10]", "value": "> 100", "unit": "µg/mL"}, {"measurement": "minimal inhibitory concentration (MIC)", "setting": "[11]", "value": 6, "unit": "µg/mL"}, {"measurement": "minimal inhibitory concentration (MIC)", "setting": "[12]; 24 hours", "value": "> 100", "unit": "µg/mL"}, {"measurement": "minimal inhibitory concentration (MIC)", "setting": "[13]", "value": "> 100", "unit": "µg/mL"}, {"measurement": "minimal inhibitory concentration (MIC)", "setting": "[14]", "value": 12.5, "unit": "µg/mL"}, {"measurement": "minimal inhibitory concentration (MIC)", "setting": "[15]", "value": 12.5, "unit": "µg/mL"}, {"measurement": "minimal inhibitory concentration (MIC)", "setting": "[16]", "value": "> 100", "unit": "µg/mL"}, {"measurement": "minimal inhibitory concentration (MIC)", "setting": "[17]", "value": "> 100", "unit": "µg/mL"}, {"measurement": "minimal inhibitory concentration (MIC)", "setting": "[18]", "value": 8, "unit": "µg/mL"}, {"measurement": "minimal inhibitory concentration (MIC)", "setting": "[19]", "value": "> 100", "unit": "µg/mL"}, {"measurement": "minimal inhibitory concentration (MIC)", "setting": "[20]", "value": 8, "unit": "µg/mL"}, {"measurement": "minimal inhibitory concentration (MIC)", "setting": "[21]", "value": "> 125", "unit": "µg/mL"}, {"measurement": "minimal inhibitory concentration (MIC)", "setting": "[22]", "value": 6, "unit": "µg/mL"}, {"measurement": "minimal inhibitory concentration (MIC)", "setting": "[23]", "value": "> 100", "unit": "µg/mL"}, {"measurement": "minimal inhibitory concentration (MIC)", "setting": "[24]", "value": 4, "unit": "µg/mL"}, {"measurement": "minimal inhibitory concentration (MIC)", "setting": "[25]", "value": 12.5, "unit": "µg/mL"}]}, {"molecule": "CC(=O)OCC1=C(C(=O)O)N2C(=O)[C@@H](NC(=O)Cc3noc(Cc4ccccc4)n3)[C@H]2SC1", "note": "[Compound C, 7-[(5-benzyl-1,2,4-oxadiazol-3-yl)-acetamido]-3-acetoxymethyl-3-cephem-4-carboxylic acid]", "values": [{"measurement": "MIC", "setting": "[1]; Staphylococcus aureus, A321, 24 h, read-out: minimal inhibitory concentration (MIC)", "value": 0.25, "unit": "µg/mL"}, {"measurement": "MIC", "setting": "[26]", "value": 0.5, "unit": "µg/mL"}, {"measurement": "MIC", "setting": "[2]; Escherichia coli, U20, read-out: minimal inhibitory concentration (MIC)", "value": "> 100", "unit": "µg/mL"}, {"measurement": "MIC", "setting": "[3]; Proteus mirabilis, 24 h, read-out: minimal inhibitory concentration (MIC)", "value": "> 100", "unit": "µg/mL"}, {"measurement": "MIC", "setting": "[4]; Klebsiella pneumoniae, read-out: minimal inhibitory concentration (MIC)", "value": 12.5, "unit": "µg/mL"}, {"measurement": "MIC", "setting": "[5]; [27]", "value": "> 100", "unit": "µg/mL"}, {"measurement": "MIC", "setting": "[6]; Staphylococcus aureus, A355, 24 h, read-out: minimal inhibitory concentration (MIC), agar serial dilution, 24 hours, 37° C.", "value": 0.75, "unit": "µg/mL"}, {"measurement": "MIC", "setting": "[7]; Providencia rettgeri, 24 h, read-out: minimal inhibitory concentration (MIC)", "value": 50, "unit": "µg/mL"}, {"measurement": "MIC", "setting": "[8]; [28]", "value": 25, "unit": "µg/mL"}, {"measurement": "MIC", "setting": "[9]; [29]", "value": "> 100", "unit": "µg/mL"}, {"measurement": "MIC", "setting": "[10]; [29]", "value": "> 100", "unit": "µg/mL"}, {"measurement": "MIC", "setting": "[11]; Bacillus subtilis, ATCC6633, 24 h, read-out: minimal inhibitory concentration (MIC)", "value": 0.25, "unit": "µg/mL"}, {"measurement": "MIC", "setting": "[12]; [27]", "value": 25, "unit": "µg/mL"}, {"measurement": "MIC", "setting": "[13]; [28]", "value": "> 100", "unit": "µg/mL"}, {"measurement": "MIC", "setting": "[14]; Staphylococcus aureus, A2000, 24 h, read-out: minimal inhibitory concentration (MIC)", "value": 0.25, "unit": "µg/mL"}, {"measurement": "MIC", "setting": "[15]; Streptococcus pneumoniae, read-out: minimal inhibitory concentration (MIC)", "value": 0.5, "unit": "µg/mL"}, {"measurement": "MIC", "setting": "[16]; [27]", "value": "> 100", "unit": "µg/mL"}, {"measurement": "MIC", "setting": "[17]; Salmonella enterica, read-out: minimal inhibitory concentration (MIC)", "value": "> 100", "unit": "µg/mL"}, {"measurement": "MIC", "setting": "[18]; Staphylococcus aureus, A355, read-out: minimal inhibitory concentration (MIC)", "value": 0.6, "unit": "µg/mL"}, {"measurement": "MIC", "setting": "[19]; [29]", "value": "> 100", "unit": "µg/mL"}, {"measurement": "MIC", "setting": "[20]; Staphylococcus aureus, A2000, 18 h, read-out: minimal inhibitory concentration (MIC)", "value": 0.3, "unit": "µg/mL"}, {"measurement": "MIC", "setting": "[21]; 18 h, read-out: minimal inhibitory concentration (MIC)", "value": 125, "unit": "µg/mL"}, {"measurement": "MIC", "setting": "[22]; Pasteurella multocida, read-out: minimal inhibitory concentration (MIC)", "value": 1, "unit": "µg/mL"}, {"measurement": "MIC", "setting": "[23]; Enterococcus faecalis, read-out: minimal inhibitory concentration (MIC)", "value": 12.5, "unit": "µg/mL"}, {"measurement": "MIC", "setting": "[24]; Staphylococcus aureus, A2001, 18 h, read-out: minimal inhibitory concentration (MIC)", "value": 0.6, "unit": "µg/mL"}, {"measurement": "MIC", "setting": "[25]; Staphylococcus aureus, A2001, 24 h, read-out: minimal inhibitory concentration (MIC)", "value": 0.25, "unit": "µg/mL"}]}]}
